Assay results: patent US12403172B2, “Composition for preventing, alleviating or treating metabolic syndrome accompanied by obesity and/or diabetes, containing, as active ingredient, complex (IB complex) of Indian gooseberry extract and sprout barley extract” (HLSCIENCE CO., LTD, priority 2019, dated 2025)
Marks after values point to notes of the source that are not given here.

Test system: obesity-induced mice from high fat diet
Assay: Body weight change of obesity-induced mice
Assay type: in vivo, C57BL/6J mice
Settings: 60% high fat diet + Metformin 250 mg/kg b.w.
Method: The effect on the body weight change of obesity-induced mice from high fat diet of the complex of the Indian gooseberry extract and barley sprout extract of the present invention was confirmed. As an experimental animal, 4-week male C57BL/6J mice around 20 g were supplied from Saeron Bio Inc. (Uiwang-si, Korea). They were used for the experiment, after passing through the adaptation period for 1 week under the condition that the light and dark was 12 hours (light/dark cycle) and the temperature was 23±2° C. and the relative humidity was 50±5%. During the adaptation period, AIN-93G diet and drinking water were allowed to be consumed freely, and the body weight was measured to separate 8 mice per each group by the random method. At the end of the adaptation period, the sample intake was progressed as free diet intake for 15 weeks, and the dietary intake and body weight were measured every week, and after the end of the experiment, the weight gain was divided by the dietary intake (total food consumption)) for the same period to calculate the food efficiency ratio (FER). The classification of the experimental group and the composition of the experimental diet were shown in Table 5, and the equation of the diet efficiency was shown in the following equation 3. FER=weight gain (g)/total food consumption (g)×100 Equation 3

CN(C)C(=N)N=C(N)N [Met, Metformin]
Initial body weight: 19.26 ± 0.66 g
Final body weight (g) (15 weeks): 39.46 ± 2.16^d g
Food intake (g/day/mouse) (15 weeks): 2.66 ± 0.18^b g/day/mouse
Weight gain (g) (15 weeks): 20.20 ± 1.89^c g
FER (food efficiency ratio) (weight gain/total food consumption x100): 7.25 ± 0.68^c
